Measured values published in article PMC6038798, “Dissecting how modular polyketide synthase ketoreductases interact with acyl carrier protein-attached substrates” (Chemical Communications (Cambridge, England), 2017).

What was measured:
[1] = molecular target: mKRb, B1-type ketoreductase (KR) domain from module 7 of MLSB of the mycolactone polyketide synthase (Mycobacterium ulcerans); assay: ITC; ACP species titrated against the KR domain in the presence of excess NADP+ (oxidised cofactor); three repeat experiments
[2] = molecular target: mKRb, B1-type ketoreductase (KR) domain from module 7 of MLSB of the mycolactone polyketide synthase (Mycobacterium ulcerans); assay: ITC; ACP species injected into a solution of the KR domain in the presence of excess NADPH; three repeat experiments
[3] = molecular target: T1, mKRa (Mycobacterium ulcerans, UniProt Q6MZA4); assay: isothermal titration calorimetry; assay type: binding
T1 construct: gene mlsA1; excised A1-type ketoreductase domain of module 5 of MLSA1; recombinant, purified
Description: isothermal titration calorimetry on mKRa

[4] = molecular target: T2, mKRb (Mycobacterium ulcerans, UniProt Q6MZ72); assay: isothermal titration calorimetry; assay type: binding
T2 construct: gene mlsB; excised B1-type ketoreductase domain of module 7 of MLSB; recombinant, purified
Description: isothermal titration calorimetry on mKRb

Compound | Kd [1] [µM] | Kd [2] [µM] | Kd [3] [µM] | Kd [4] [µM] | stoichiometry N [2]
Acetoacetyl-mACPb (1b) (domain or fragment) | 0.38 |  |  |  | 
apo mACPa, acyl carrier protein domain cognate to mKRa (module 5 of MLSA1), apo form (domain or fragment) |  | 2.2 |  |  | 
apo mACPb, acyl carrier protein domain cognate to mKRb (module 7 of MLSB), apo form (domain or fragment) | 2.2 | 2.6 |  |  | 
β-Hydroxybutyryl-mACPb (1c) (domain or fragment) |  | 0.27 |  |  | 
holo mACPa (1a) (domain or fragment) |  | 0.63 |  |  | 
CC(C)(CO)[C@@H](O)C(=O)NCCC(=O)O [compound 3, Pantothenate] |  |  | 0.7 ± 0.13 | 0.7 ± 0.1 | 
CC(=O)NCCS [compound 7, N-Acetyl cysteamine] |  |  | 1.03 ± 0.02 | 1.4 ± 0.3 | 
NCCC(=O)O [compound 6, β-Alanine] |  |  | 0.97 ± 0.04 | 0.5 ± 0.09 | 
holo mACPb (1a) (domain or fragment) | 0.75 | 0.61 |  |  | 1
CC(C)(CO)[C@@H](O)C(=O)O [compound 4, Pantoate] |  |  | > 1000 | 0.6 ± 0.1 | 
NCCS [compound 5, Cysteamine] |  |  | > 1000 | > 1000 | 
CC(C)(CO)[C@@H](O)C(=O)NCCC(=O)NCCS [compound 2, R-Pantetheine] |  |  | 1.1 ± 0.04 | 1.2 ± 0.3 | 
